According to PubChem BioAssay AID248 (DTP/NCI, 2004):
Values joined by “and” are separate entries in the source; they are usually repeats but may differ in a detail not shown here. Equal entries are not always repeated. Inconclusive results and toxic doses are left out. Rule as the data show it: active = T/C of 150% or more; inactive = T/C below 125%.

Tested on: L1210 leukemia ip in BDF1 mice, survival T/C
Experiment: NCI In Vivo Anticancer Drug Screen. Data for tumor model L1210 Leukemia (intraperitoneal) in B6D2F1 (BDF1) mice
Details: endpoint: mean survival time, higher = longer survival
In short: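 Transplanted-tumor mice were given test agent; controls received vehicle only. Survival readings from the two groups were divided (treated over control).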

[1] = dose: 100.0 mg/kg/injection, schedule: Q04DX002 (ip), vehicle: Klucel (hydroxypropylcellulose) (HPC)
[2] = dose: 100.0 mg/kg/injection, schedule: Q01DX001 (ip), vehicle: saline
[3] = dose: 200.0 mg/kg/injection, schedule: Q01DX001 (ip), vehicle: saline
[4] = dose: 400.0 mg/kg/injection, schedule: Q01DX001 (ip), vehicle: saline
[5] = dose: 100.0 mg/kg/injection, schedule: Q04DX003 (ip), vehicle: Klucel (hydroxypropylcellulose) (HPC)
[6] = dose: 100.0 mg/kg/injection, schedule: Q01DX001 (ip), vehicle: carboxymethylcellulose (CMC)
[7] = dose: 400.0 mg/kg/injection, schedule: Q01DX001 (ip), vehicle: carboxymethylcellulose (CMC)
[8] = dose: 100.0 mg/kg/injection, schedule: Q04DX002 (ip), vehicle: saline with Tween-80
[9] = dose: 200.0 mg/kg/injection, schedule: Q04DX002 (ip), vehicle: saline with Tween-80
[10] = dose: 400.0 mg/kg/injection, schedule: Q04DX002 (ip), vehicle: saline with Tween-80
[11] = dose: 100.0 mg/kg/injection, schedule: Q04DX003 (ip), vehicle: saline
[12] = dose: 200.0 mg/kg/injection, schedule: Q04DX003 (ip), vehicle: saline
[13] = dose: 400.0 mg/kg/injection, schedule: Q04DX003 (ip), vehicle: saline
[14] = dose: 25.0 mg/kg/injection, schedule: Q01DX009 (ip), vehicle: saline
[15] = dose: 50.0 mg/kg/injection, schedule: Q01DX009 (ip), vehicle: saline

Measured: T/C

Cc1cc(N(CCCl)CCCl)ccc1C=Nc1ccccc1-n1ccnc1C
inactive: dose: 75.0 mg/kg/injection, schedule: Q04DX002 (ip), vehicle: Klucel (hydroxypropylcellulose) (HPC) 98 % of control | dose: 150.0 mg/kg/injection, schedule: Q04DX002 (ip), vehicle: Klucel (hydroxypropylcellulose) (HPC) 98 % of control | dose: 300.0 mg/kg/injection, schedule: Q04DX002 (ip), vehicle: Klucel (hydroxypropylcellulose) (HPC) 98 % of control

NNc1cc(Cl)ccc1Cl
inactive: [1] 96 % of control | dose: 200.0 mg/kg/injection, schedule: Q04DX002 (ip), vehicle: Klucel (hydroxypropylcellulose) (HPC) 96 % of control | dose: 400.0 mg/kg/injection, schedule: Q04DX002 (ip), vehicle: Klucel (hydroxypropylcellulose) (HPC) 100 % of control

NC(=O)c1ccncc1
inactive: [2] 105 % of control | [3] 104 % of control | [4] 98 % of control

O=[N+]([O-])c1ccc(Oc2cccc(C(F)(F)F)c2)cc1
inactive: [5] 95 % of control | dose: 200.0 mg/kg/injection, schedule: Q04DX003 (ip), vehicle: Klucel (hydroxypropylcellulose) (HPC) 96 % of control | dose: 400.0 mg/kg/injection, schedule: Q04DX003 (ip), vehicle: Klucel (hydroxypropylcellulose) (HPC) 96 % of control

OC1c2cc(Br)ccc2-c2c(F)cc(Br)cc21 (configuration not stated)
inactive: [6] 100 % of control | dose: 200.0 mg/kg/injection, schedule: Q01DX001 (ip), vehicle: carboxymethylcellulose (CMC) 109 % of control | [7] 103 % of control

O=C(Nc1ccccc1C(F)(F)F)Oc1ccc(Cl)cc1Cc1ccccc1
inactive: dose: 100.0 mg/kg/injection, schedule: Q01DX009 (ip), vehicle: saline with Tween-80 93 % of control | [8] 117 % of control | dose: 200.0 mg/kg/injection, schedule: Q01DX009 (ip), vehicle: saline with Tween-80 101 % of control | [9] 98 % of control | dose: 400.0 mg/kg/injection, schedule: Q01DX009 (ip), vehicle: saline with Tween-80 101 % of control | [10] 98 % of control

Nc1nc(N)nc(-c2cccc(Cl)c2)n1
inactive: dose: 25.0 mg/kg/injection, schedule: Q04DX003 (ip), vehicle: Klucel (hydroxypropylcellulose) (HPC) 107 % of control | dose: 50.0 mg/kg/injection, schedule: Q04DX003 (ip), vehicle: Klucel (hydroxypropylcellulose) (HPC) 101 % of control | [1] 111 % of control | [5] 102 % of control

O=C(Nc1ccc(C2=NCCN2)c(O)c1)c1ccc(C(=O)Nc2ccc(C3=NCCN3)c(O)c2)cc1
inactive: dose: 8.0 mg/kg/injection, schedule: Q01DX Z (ip), vehicle: carboxymethylcellulose (CMC) 103 % of control | dose: 16.0 mg/kg/injection, schedule: Q01DX Z (ip), vehicle: carboxymethylcellulose (CMC) 88 % of control | dose: 31.0 mg/kg/injection, schedule: Q01DX Z (ip), vehicle: carboxymethylcellulose (CMC) 88 % of control | dose: 62.0 mg/kg/injection, schedule: Q01DX Z (ip), vehicle: carboxymethylcellulose (CMC) 90 % of control

O=C1/C(=C\c2ccccc2)N2CCC1CC2
inactive: [8] 87 % of control | [11] 103 % of control | [9] 91 % of control | [12] 108 % of control | [10] 87 % of control | [13] 103 % of control

CCOC(=O)/C(C#N)=C\c1cccc2ccccc12
inactive: [2] 98 % of control | dose: 100.0 mg/kg/injection, schedule: Q04DX003 (ip), vehicle: other 92 % of control | [3] 103 % of control | dose: 200.0 mg/kg/injection, schedule: Q04DX003 (ip), vehicle: other 92 % of control | [4] 100 % of control | dose: 400.0 mg/kg/injection, schedule: Q04DX003 (ip), vehicle: other 93 % of control

COc1ccc(-c2nc(N)nc3c2CN(CCC(=O)O)C3=O)cc1
inactive: [2] 100 % of control | [3] 95 % of control | [4] 94 % of control

COC(C)C1(C)NC(=O)NC1=O (configuration not stated)
inactive: [2] 114 % of control | [3] 110 % of control | [4] 102 % of control

CC1(C)CC(=O)c2ccccc21
inactive: [14] 101 % of control | [15] 94 % of control and 109 % of control | dose: 100.0 mg/kg/injection, schedule: Q01DX009 (ip), vehicle: saline 101 % of control and 102 % of control | [11] 100 % of control | dose: 200.0 mg/kg/injection, schedule: Q01DX009 (ip), vehicle: saline 104 % of control | [12] 96 % of control | [13] 102 % of control

C/C(=C\c1ccc(C)cc1)[N+](=O)[O-]
inactive: dose: 50.0 mg/kg/injection, schedule: Q01DX001 (ip), vehicle: other 108 % of control | dose: 100.0 mg/kg/injection, schedule: Q01DX001 (ip), vehicle: other 100 % of control | dose: 200.0 mg/kg/injection, schedule: Q01DX001 (ip), vehicle: other 92 % of control | dose: 400.0 mg/kg/injection, schedule: Q01DX001 (ip), vehicle: other 103 % of control

NCCCn1c2ccccc2c2cnccc21
inactive: dose: 12.5 mg/kg/injection, schedule: Q01DX009 (ip), vehicle: saline 101 % of control | [14] 101 % of control | dose: 25.0 mg/kg/injection, schedule: Q04DX003 (ip), vehicle: water 87 % of control | [15] 107 % of control | dose: 50.0 mg/kg/injection, schedule: Q01DX009 (ip), vehicle: water 104 % of control | dose: 50.0 mg/kg/injection, schedule: Q04DX003 (ip), vehicle: water 92 % of control | dose: 100.0 mg/kg/injection, schedule: Q01DX009 (ip), vehicle: water 103 % of control | dose: 100.0 mg/kg/injection, schedule: Q04DX003 (ip), vehicle: water 104 % of control and 87 % of control

O=C(NCCBr)Nc1ccccc1
inactive: dose: 12.5 mg/kg/injection, schedule: Q01DX009 (ip), vehicle: Klucel (hydroxypropylcellulose) (HPC) 97 % of control | dose: 25.0 mg/kg/injection, schedule: Q01DX009 (ip), vehicle: Klucel (hydroxypropylcellulose) (HPC) 108 % of control | dose: 50.0 mg/kg/injection, schedule: Q01DX009 (ip), vehicle: Klucel (hydroxypropylcellulose) (HPC) 108 % of control | dose: 80.0 mg/kg/injection, schedule: Q01DX009 (ip), vehicle: Klucel (hydroxypropylcellulose) (HPC) 103 % of control | dose: 115.0 mg/kg/injection, schedule: Q01DX009 (ip), vehicle: Klucel (hydroxypropylcellulose) (HPC) 114 % of control | dose: 170.0 mg/kg/injection, schedule: Q01DX009 (ip), vehicle: Klucel (hydroxypropylcellulose) (HPC) 95 % of control

CCC(O)C[As](=O)(O)c1cccc(Cl)c1 (configuration not stated)
inactive: dose: 0.78 mg/kg/injection, schedule: Q04DX002 (ip), vehicle: saline 106 % of control | dose: 0.78 mg/kg/injection, schedule: Q04DX003 (ip), vehicle: saline with Tween-80 92 % of control | dose: 1.56 mg/kg/injection, schedule: Q01DX001 (ip), vehicle: saline 96 % of control | dose: 1.56 mg/kg/injection, schedule: Q04DX002 (ip), vehicle: saline 101 % of control | dose: 1.56 mg/kg/injection, schedule: Q04DX003 (ip), vehicle: saline with Tween-80 94 % of control | dose: 3.13 mg/kg/injection, schedule: Q01DX001 (ip), vehicle: saline 100 % of control | dose: 3.13 mg/kg/injection, schedule: Q04DX002 (ip), vehicle: saline 105 % of control | dose: 3.13 mg/kg/injection, schedule: Q04DX003 (ip), vehicle: saline with Tween-80 95 % of control | dose: 6.25 mg/kg/injection, schedule: Q01DX001 (ip), vehicle: saline with Tween-80 120 % of control | dose: 6.25 mg/kg/injection, schedule: Q01DX001 (ip), vehicle: saline 91 % of control | dose: 6.25 mg/kg/injection, schedule: Q04DX002 (ip), vehicle: saline 97 % of control | dose: 6.25 mg/kg/injection, schedule: Q04DX003 (ip), vehicle: saline with Tween-80 92 % of control

CCC(/C=N\NC(=O)CCCC(=O)N/N=C/C(CC)CC)CC
inactive: dose: 50.0 mg/kg/injection, schedule: Q01DX001 (ip), vehicle: carboxymethylcellulose (CMC) 90 % of control | [6] 90 % of control | [7] 90 % of control
